From ChEMBL document CHEMBL5725244, “IRE-1α inhibitors” (2016)

Experiment: Inhibition Assay: A fusion protein comprising glutathione S transferase (GST) and human IRE-1α (GST-IRE-1α) obtained from a 500 ml baculovirus-infected insect cell culture can be used to measure IRE-1α activity in vitro.Five ul of a reaction mixture comprising 1x reaction buffer (5x reaction buffer is 100 mM Hepes pH 7.5, 250 mM KOAc, 2.5 mM MgCl2), 3 mM DTT, and 0.4% polyethylene glycol water is added to each well of 384 well plates. Twenty-five nanoliters of a 1 mM test compound solution are added to test wells. Three ul of a 128 ng/ml IRE-1α preparation are added to each test well and to positive control wells (final concentration 5.82 ng/well). Negative control wells contain only reaction mixture and test compound.After spinning the plates at 1200 rpm for 30 seconds, 3 ul of an IRE-1α human mini-XBP-1 mRNA stem-loop substrate 5'-[…]-3' (SEQ ID NO:1), labeled with the fluorescent dye Cy5 at the 5' end and Black Hole Quencher 2 (BH2) at the 3' end, are added to each well of a control plate. The plates are again spun at 1200 rpm for 30 seconds. Final concentrations for the assay are: 63 nM IRE-1α substrate, 5.82 ng IRE-1α protein, and 2.5 uM test compound. The plates are covered with lids and incubated for one hour at 30° C. The plates are then transferred to an ACQUEST microplate reader. Data is analyzed using data analysis software, and the percent activity of IRE-1α is calculated.
For `O=C(C1CCN(c2ccc3ccc(O)c(CO)c3c2)C1)N1CCCCC1` (configuration not stated), the IC50 was > 1000 nM. With `CN(Cc1ccccc1)C(=O)C1CCN(c2ccc3ccc(O)c(CO)c3c2)C1` (configuration not stated) the IC50 was > 1000 nM. With `CN1CCN(c2ccc3ccc(O)c(CO)c3c2)CC1` the IC50 was > 1000 nM. In the case of `CN(Cc1ccccc1)C1CCN(c2ccc3c(C=O)c(O)ccc3c2)C1` (configuration not stated), the IC50 is reported as > 1000 nM. For `OCc1c(O)ccc2ccc(N3CCCC3)cc12`, the IC50 was > 1000 nM. With `OCc1c(O)ccc2cc(N3CCOCC3)ccc12` the IC50 was > 1000 nM. With `CN1CCN(C2CCN(c3ccc4ccc(O)c(CO)c4c3)C2)CC1` (configuration not stated) the IC50 was > 1000 nM.
